Assay results from US20170253607A1, “LONG-ACTING HIV PROTEASE INHIBITOR” (Shionogi & Co., Ltd., priority 2014, published 2017).

Assays:
[1] = Evaluation of total body clearance (CLtot), intravenous administration; assay type: in vivo, Sprague-Dawley (SD); conditions: rat (SD), intravenous administration 0.5-10 mg/kg; CLtot = dose/AUC
Outline: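 Compounds given as a single tail-vein injection at 0.5-10 mg/kg (n=2-3), dose varying by compound. Plasma sampled at scheduled times and measured by LC/MS/MS; CLtot derived as dose divided by AUC from pharmacokinetic analysis.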

HIV-1 PR = HIV-1 PR (Human immunodeficiency virus type 1 group M subtype B, UniProt P04585); experiment: HIV-protease inhibitory activity assay (FRET peptide substrate); assay type: biochemical; conditions: Test Example 1
Outline: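 Fluorescence recovery at ex 485/em 535 nm reports cleavage of a quenched FRET peptide (2 μmol/L final) by 0.83 ng enzyme over 60 minutes at room temperature. Buffer was NaAc pH 4.8 with NaCl, EDTA, DTT and Tween 20. IC50 values came from four-parameter logistic regression of % inhibition.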

[2] = Protein binding test (equilibrium dialysis, unbound ratio fu in serum); assay type: in vitro ADME; conditions: rat serum, equilibrium dialysis 24 hours, 37° C., 2 μg/mL
Experimental: Assay condition: Evaluation method; Equilibrium dialysis method, Reaction time; 24 hours, Reaction temperature; 37° C., Assay concentration; 2 μg/mL A solution of the compound was added to each serum and mixed to prepare the serum samples with above concentration. The serum sample was put into one side of an equilibrium dialysis apparatus with dialysis membrane and phosphate buffered saline (PBS) was also put to another side of the apparatus. The apparatus was incubated at 37° C. for 24 hours. After incubation, the serum and PBS samples were collected and the compound concentrations in both samples were measured by LC/MS/MS. Fu was calculated by dividing the concentration in PBS by the concentration in the serum.

Compound	rat_CLt [1] [mL/min/kg]	IC50 (HIV-1 PR) [nM]	rat_fu [2] [%]
COc1ccc(S(=O)(=O)N(CC(C)C)CC(O)C(Cc2ccc(SCc3ccccc3-c3sc4c(c3C(=O)O)CC(C)(C)CC4)cc2)NC(=O)OC2COC3(C)OCCC23)cc1 (stereo not drawn) [Compound I-380]	0.702	5.51	<0.1
CC(C)CN(CC(O)C(Cc1ccc(OCc2ccccc2-c2sc3c(c2C(=O)O)CC(C)(C)CC3)cc1)NC(=O)OC1COC2(C)OCCC12)S(=O)(=O)c1ccc2nc(O)sc2c1 (stereo not drawn) [Compound I-131]	2.27	2.12	<0.1
COc1ccc(S(=O)(=O)N(CC(C)C)CC(O)C(Cc2ccc(N3CC(Oc4ccccc4-c4sc5c(c4C(=O)O)CC(C)(C)CC5)C3)cc2)NC(=O)OC2COC3(C)OCCC23)cc1 (stereo not drawn) [Compound I-357]	1.55	4.41	<0.1
COc1ccc(S(=O)(=O)N(CC(C)C)CC(O)C(Cc2ccc(OCc3ccccc3-c3sc4c(c3C(=O)O)CC(C)(C)CC4(C)C)cc2)NC(=O)OC2COC3(C)OCCC23)cc1 (stereo not drawn) [Compound I-113]	1.18	1.84	<0.1
COc1ccc(S(=O)(=O)N(CC(C)C)CC(O)C(Cc2ccc(N(C)Cc3ccccc3-n3nc4c(c3C(=O)O)CC(C)(C)CC4)cc2)NC(=O)OC2COC3(C)OCCC23)cc1 (stereo not drawn) [Compound I-349]	0.71	2.33	<0.1
CC(C)CN(CC(O)C(Cc1ccc(OCc2ccccc2-c2sc3c(c2C(=O)O)CC(C)(C)CC3(C)C)cc1)NC(=O)OC1COC2(C)OCCC12)S(=O)(=O)c1ccc2ncsc2c1 (stereo not drawn) [Compound I-119]	2.29	1.23	<0.1
COc1ccc(S(=O)(=O)N(CC(C)C)CC(O)C(Cc2ccc(OCc3cc(N(C)C)ccc3-c3sc4c(c3C(=O)O)CC(C)(C)CC4)cc2)NC(=O)OC2COC3(C)OCCC23)cc1 (stereo not drawn) [Compound I-206]	0.162	3.38	<0.1
COc1ccc(S(=O)(=O)N(CC(C)C)CC(O)C(Cc2ccc(NC3Cc4cccc(-c5sc6c(c5C(=O)O)CC(C)(C)CC6)c4C3)cc2)NC(=O)OC2COC3(C)OCCC23)cc1 (stereo not drawn) [Compound I-241]	0.404	2.95	<0.1
COc1ccc(S(=O)(=O)N(CC(C)C)CC(O)C(Cc2ccc(N(C)CC3=C(c4sc5c(c4C(=O)O)CC(C)(C)CC5)CCCC3)cc2)NC(=O)OC2COC3(C)OCCC23)cc1 (stereo not drawn) [Compound I-236]	0.763	2.9	<0.1
COc1ccc(S(=O)(=O)N(CC(C)C)CC(O)C(Cc2ccc(N3CC(C)C(Oc4ccccc4-c4sc5c(c4C(=O)O)CC(C)(C)CC5)C3)cc2)NC(=O)OC2COC3(C)OCCC23)cc1 (stereo not drawn) [Compound I-406]	4.61	1.89	<0.1
COc1ccc(S(=O)(=O)N(CC(C)C)C[C@@H](O)[C@H](Cc2ccc(OCc3ccccc3-c3sc4c(c3C(=O)O)CCCC4=O)cc2)NC(=O)O[C@H]2CO[C@@]3(C)OCC[C@@H]23)cc1 [Compound I-2]	5.11	1.05	<0.1
COc1ccc(S(=O)(=O)N(CC(C)C)CC(O)C(Cc2ccc(OCc3ncccc3-c3ccc(-c4sc5c(c4C(=O)O)CC(C)(C)CC5)cc3)cc2)NC(=O)OC2COC3(C)OCCC23)cc1 (stereo not drawn) [Compound I-44]	0.535	1.09	<0.1
COc1ccc(S(=O)(=O)N(CC(C)C)CC(O)C(Cc2ccc(NCc3ncccc3-c3ccc(-c4sc5c(c4C(=O)O)CC(C)(C)CC5)cc3)cc2)NC(=O)OC2COC3(C)OCCC23)cc1 (stereo not drawn) [Compound I-415]	0.66	2.55	<0.1
COc1ccc(S(=O)(=O)N(CC(C)C)CC(O)C(Cc2ccc(OCc3ccccc3-c3ccc4c(c3)C(=O)C(c3ccc(F)cc3)C4=O)cc2)NC(=O)OC2COC3OCCC23)cc1 (stereo not drawn) [Compound I-841]	2.38	2.21	<0.1
